Measurements published in ChEMBL document CHEMBL1165961, “Fijiolides A and B, inhibitors of TNF-alpha-induced NFkappaB activation, from a marine-derived sediment bacterium of the genus Nocardiopsis” (J Nat Prod, 2010).
One block for each compound: values may come before it. The source made the active and inactive calls. The rule behind the calls is not given here.

Experiments:
Type in all cases: cell-based
HEK293 = assay: (§1) Inhibition of NF-kappaB activity in TNF-alpha-induced human HEK293 cells by luciferase assay; conditions: dose or concentration not given here
[1] = biological target: NAD(P)H dehydrogenase [quinone] 1 (Mus musculus) (UniProt Q64669); assay: Induction of NADPH-dependent quinone reductase activity in mouse Hepa-1c1c7 cells at 28.4 uM after 48 hrs by MTT assay
NAD(P)H dehydrogenase [quinone] 1 (Mus musculus), sequence (Q64669 whole entry): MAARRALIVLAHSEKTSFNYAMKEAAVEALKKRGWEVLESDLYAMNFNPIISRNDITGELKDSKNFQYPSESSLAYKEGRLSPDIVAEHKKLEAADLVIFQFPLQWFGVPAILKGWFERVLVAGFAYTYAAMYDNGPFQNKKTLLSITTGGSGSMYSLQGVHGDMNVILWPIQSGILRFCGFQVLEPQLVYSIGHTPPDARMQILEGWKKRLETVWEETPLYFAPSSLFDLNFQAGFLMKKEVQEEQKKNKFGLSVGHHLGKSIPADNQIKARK

[2] = biological target: NAD(P)H dehydrogenase [quinone] 1 (Mus musculus) (UniProt Q64669); assay: Induction of NADPH-dependent quinone reductase activity in mouse Hepa-1c1c7 cells assessed as concentration to double activity after 48 hrs by MTT assay
[3] = as §1
[4] = biological target: NAD(P)H dehydrogenase [quinone] 1 (Mus musculus) (UniProt Q64669); assay: Induction of NADPH-dependent quinone reductase activity in mouse Hepa-1c1c7 cells assessed as induction ratio at 28.4 uM after 48 hrs by MTT assay relative to DMSO control

Structure (SMILES): CN(C)[C@H]1[C@@H](O)[C@@H](O)[C@H](O[C@]23C=CC=C2c2c4ccc(c2Cl)[C@@H](O)COC(=O)C[C@H](N)c2cc(O)c(c(Cl)c2)O[C@H]43)OC1(C)C
inhibition (HEK293): 46.5%
Activity [1]: inactive

CD [2]: 0.013 µM
Structure (SMILES): O=c1cc(-c2ccc(Br)cc2)oc2ccccc12

Structure (SMILES): CC(=O)N[C@H]1CC(=O)OC[C@H](O)c2ccc3c(c2Cl)C2=CC=C[C@]2(O[C@@H]2OC(C)(C)[C@@H](N(C)C)[C@@H](O)[C@H]2O)[C@@H]3Oc2c(O)cc1cc2Cl [FIJIOLIDE A]
IC50 [3]: 570 nM
inhibition (HEK293): 70.3%
Ratio [4]: 3.5
CD [2]: 1.8 µM
